PubChem BioAssay (NCI)
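Method: 48-hour compound exposure of cells in 96-well plates, five concentrations, linear interpolation of endpoints. Definition used: TGI = concentration required for complete inhibition of growth.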

Legend:
Assay in all cases: growth of human tumour cells (NCI), 48 h
[1] = tested on: MCF7 breast
[2] = tested on: COLO 205 colon
[3] = tested on: NCI/ADR-RES ovarian
[4] = tested on: DU-145 prostate
[5] = tested on: SW-620 colon
[6] = tested on: U251 CNS
[7] = tested on: IGROV1 ovarian
[8] = tested on: SK-OV-3 ovarian
[9] = tested on: OVCAR-5 ovarian
[10] = tested on: UACC-62 melanoma
[11] = tested on: TK-10 renal
[12] = tested on: OVCAR-3 ovarian
[13] = tested on: CAKI-1 renal
[14] = tested on: SR leukemia
[15] = tested on: NCI-H522 lung
[16] = tested on: NCI-H226 lung
[17] = tested on: KM12 colon
[18] = tested on: HCT-15 colon
[19] = tested on: SK-MEL-28 melanoma
[20] = tested on: MDA-N
[21] = tested on: A498 renal
[22] = tested on: MDA-MB-435
[23] = tested on: HCT-116 colon
[24] = tested on: HOP-92 NSCLC
[25] = tested on: BT-549 breast
[26] = tested on: SK-MEL-2 melanoma
[27] = tested on: NCI-H23 lung
[28] = tested on: RPMI-8226 leukemia
[29] = tested on: HCC-2998 colon
[30] = tested on: 786-0 renal
[31] = tested on: T-47D breast
[32] = tested on: UACC-257 melanoma
[33] = tested on: EKVX NSCLC
[34] = tested on: SF-295 CNS
[35] = tested on: RXF 393 renal
[36] = tested on: SF-268 CNS
[37] = tested on: SNB-19 CNS
[38] = tested on: A549 NSCLC
[39] = tested on: MOLT-4 leukemia
[40] = tested on: HS 578T breast
[41] = tested on: SF-539 CNS
[42] = tested on: NCI-H460 lung
[43] = tested on: PC-3 prostate
[44] = tested on: LOX IMVI melanoma
[45] = tested on: OVCAR-4 ovarian
[46] = tested on: UO-31 renal
[47] = tested on: M14 melanoma
[48] = tested on: HOP-62 NSCLC
[49] = tested on: SN12C renal
[50] = tested on: MDA-MB-231 breast
[51] = tested on: OVCAR-8 ovarian
[52] = tested on: ACHN renal
[53] = tested on: CCRF-CEM leukemia
[54] = tested on: HT29 colon
[55] = tested on: SK-MEL-5 melanoma
[56] = tested on: MALME-3M melanoma
[57] = tested on: HL-60(TB) leukemia
[58] = tested on: SNB-75 CNS
[59] = tested on: K-562 leukemia

SMILES: C[C@H]1CC[C@H]([C@@H](C)[C@H]2[C@@H](O)C[C@H]3[C@@H]4CC[C@H]5C[C@@H](O)CC[C@]5(C)[C@H]4CC[C@]23C)NC1
- TGI [1]: 47.2 µM
- TGI [2]: 45.7 µM
- TGI [3]: 32.6 µM
- TGI [4]: 32 µM
- TGI [5]: 41.9 µM
- TGI [6]: 31.9 µM
- TGI [7]: 35.4 µM
- TGI [8]: 31.7 µM
- TGI [9]: 49.4 µM
- TGI [10]: 28.5 µM
- TGI [11]: 38.1 µM
- TGI [12]: 39.8 µM
- TGI [13]: 34.3 µM
- TGI [14]: 24.7 µM
- TGI [15]: 30.8 µM
- TGI [16]: 39.5 µM
- TGI [17]: 30.2 µM
- TGI [18]: 36.6 µM
- TGI [19]: 36.1 µM
- TGI [20]: 43.8 µM
- TGI [21]: 32.1 µM
- TGI [22]: 32.3 µM
- TGI [23]: 31.7 µM
- TGI [24]: 33.7 µM
- TGI [25]: 32.5 µM
- TGI [26]: 46 µM
- TGI [27]: 32.5 µM
- TGI [28]: 30.7 µM
- TGI [29]: 35.5 µM
- TGI [30]: 37.1 µM
- TGI [31]: 30.8 µM
- TGI [32]: 35.7 µM
- TGI [33]: 32.5 µM
- TGI [34]: 39.2 µM
- TGI [35]: 47.7 µM
- TGI [36]: 67.1 µM
- TGI [37]: 50.2 µM
- TGI [38]: 51 µM
- TGI [39]: 27.4 µM
- TGI [40]: 57.7 µM
- TGI [41]: 53.7 µM
- TGI [42]: 39.7 µM
- TGI [43]: 31 µM
- TGI [44]: 50.6 µM
- TGI [45]: 34.1 µM
- TGI [46]: 30.9 µM
- TGI [47]: 59.2 µM
- TGI [48]: 58.1 µM
- TGI [49]: 35.5 µM
- TGI [50]: 47.9 µM
- TGI [51]: 32.2 µM
- TGI [52]: 53.7 µM
- TGI [53]: 29 µM
- TGI [54]: 34.2 µM
- TGI [55]: 44 µM
- TGI [56]: 33 µM
- TGI [57]: 20.2 µM

SMILES: Cc1nn2c(=O)c([N+](=O)[O-])c(/C=C/c3ccco3)nc2s1
- TGI [1]: > 100 µM
- TGI [2]: > 100 µM
- TGI [3]: > 100 µM
- TGI [4]: > 100 µM
- TGI [5]: > 100 µM
- TGI [6]: > 100 µM
- TGI [7]: > 100 µM
- TGI [8]: > 100 µM
- TGI [9]: > 100 µM
- TGI [10]: > 100 µM
- TGI [11]: > 100 µM
- TGI [12]: > 100 µM
- TGI [13]: > 100 µM
- TGI [14]: 79.2 µM
- TGI [15]: > 100 µM
- TGI [16]: > 100 µM
- TGI [58]: > 100 µM
- TGI [17]: > 100 µM
- TGI [18]: > 100 µM
- TGI [19]: > 100 µM
- TGI [20]: 76.5 µM
- TGI [22]: 44.7 µM
- TGI [59]: > 100 µM
- TGI [23]: > 100 µM
- TGI [24]: > 100 µM
- TGI [25]: > 100 µM
- TGI [26]: > 100 µM
- TGI [27]: > 100 µM
- TGI [28]: > 100 µM
- TGI [29]: > 100 µM
- TGI [30]: > 100 µM
- TGI [31]: > 100 µM
- TGI [32]: > 100 µM
- TGI [33]: 63.7 µM
- TGI [34]: > 100 µM
- TGI [35]: > 100 µM
- TGI [36]: > 100 µM
- TGI [37]: > 100 µM
- TGI [38]: > 100 µM
- TGI [39]: > 100 µM
- TGI [40]: 89.1 µM
- TGI [41]: > 100 µM
- TGI [42]: > 100 µM
- TGI [43]: > 100 µM
- TGI [44]: 50.4 µM
- TGI [45]: > 100 µM
- TGI [46]: > 100 µM
- TGI [47]: > 100 µM
- TGI [48]: > 100 µM
- TGI [49]: > 100 µM
- TGI [50]: > 100 µM
- TGI [51]: > 100 µM
- TGI [52]: > 100 µM
- TGI [53]: > 100 µM
- TGI [54]: > 100 µM
- TGI [55]: 90.1 µM
- TGI [56]: > 100 µM
- TGI [57]: 96.2 µM
